# Experimental data reported in patent publication US20250249110A1, “ANTIMICROBIAL PEPTIDE DERIVATIVE AND USE THEREOF” (SICHUAN UNIVERSITY, priority 2016, published 2025).
# Where a SMILES comes first, the peptide text is derived from it. The star is where a group is joined. Succinyl(4-O-cholesteryl) = CC(C)CCC[C@@H](C)[C@H]1CC[C@H]2[C@@H]3CC=C4C[C@@H](OC(=O)CCC(=O)*)CC[C@]4(C)[C@H]3CC[C@]12C
# Key:
# [1] = tested on: Staphylococcus aureus 33591; test: Intra-abdominally infected mouse model; format: in vivo; settings: intravenous administration
# Procedure: The anti-infection activity of DP7-C is determined by the intra-abdominally infected models. […]
# The experimental steps are as follows: • (1) Activate Staphylococcus aureus 33591 with MHB the day before the experiment, wash the activated strains twice with normal saline on the day of the experiment, and determine the concentration of bacterial liquid for later use. • (2) To establish an abdominally infected mouse model, intraperitoneally inject the bacterial solution of 1.5×10^8 cfu/0.5 mL into each mouse. • (3) Intravenously inject the drug by group after one hour of infection, 0.1 mL/mouse. • (4) 24 h later, intraperitoneally inject 5 mL of normal saline into the mouse, gently massage the abdomen, kill the mouse and disinfect with 75% alcohol. After 5 min, scissor the abdominal cavity epithelium, make a small opening in the abdominal cavity, draw ascites as much as possible from the opening with a 1 ml syringe, and then transfer to a sterile EP tube for mixing. • (5) Dilute with normal saline at a dilution of, for example, 10×, 100×, 1000× and 10000×; take three bacterial solutions with suitable concentrations, 20 μL each, coat the MHA plate and incubate in a bacteria incubator overnight. • (6) Select a plate with 20-200 colonies and convert and calculate the amount of bacteria per milliliter in 5 milliliters of ascites.
# [2] = tested on: Pseudomonas aeruginosa with fluorescence (PAO1-GFP); test: Abdominally infected zebrafish model; format: in vivo; settings: DP7-C 1 mg/mL; green fluorescence at 3 h, 8 h, 18 h
# Procedure: Next, we established an abdominally infected zebrafish model through Pseudomonas aeruginosa with fluorescence (PAO1-GFP) to further verify the anti-infection effect of DP7-C.
# The male and female AB wild zebrafish were mated according to the mating and breeding procedures. After spawning, the roe was collected, placed in an incubator at 28° C. and incubated in the seawater containing PTU. The seawater containing PTU was changed once a day. When zebrafish was incubated for 48 h, Pseudomonas aeruginosa with fluorescence (PAO1-GFP) diluted with DP7-C and normal saline was intraperitoneally injected, and photographs were taken at 3 h, 8 h and 18 h under a fluorescence microscope to observe the growth of PAO1-GFP in the abdomen of zebrafish.
# mouse PBMC = test: Immune-related cytokine expression by Q-PCR after PBMC stimulation; format: cell-based
# Procedure: In order to determine the changes of cytokines in mouse PBMC after DP7-C stimulation, the isolated mouse PBMC is diluted to 1×10^6 cells/mL and added to a 6-well plate at 2 ml/well, in which the stimulation concentration of DP7-C is 200 μg/ml and the stimulation time is 4 h. After stimulation, the cells are collected and stored in a −80° C. refrigerator. Meanwhile, in order to verify whether DP7-C can reverse LPS-induced inflammatory reaction, an experiment is set up to stimulate PBMC together with LPS: PBMC is diluted to 1×10^6 cells/ml and added to a 6-well plate at 2 mL/well in which the stimulation concentration of DP7-C is 200 μg/mL; after 1 h, stimulated by LPS for 4 h, and cells are collected and stored in −80° C. refrigerator. After all samples are collected, the following steps are performed, including centrifugation, washing, total RNA extraction, reverse transcription and real-time quantitative PCR.
# [3] = tested on: C26 subcutaneously implanted tumor; test: Subcutaneously implanted tumor model of C26 mouse colon cancer; format: in vivo
# Procedure: In order to further characterize the application potential of DP7-C micelles in tumor therapy, we established a subcutaneously implanted tumor model of C26 mouse colon cancer and used DP7-C to transmit anti-VEGF siRNA therapeutic genes for therapeutic research. • (1) On day 0, female BALB/c mice aged 6-8 weeks are subcutaneously inoculated with 0.1 mL of cell suspension (containing about 1.5×10^6 C26 cells). • (2) On day 8, when the tumor is palpable, mice are randomly divided into 4 groups, 8 mice for each group, and are labeled. • (3) Four groups of mice are intratumorally injected with 10 doses of normal saline (blank control group), blank DP7-C micelle (25 μg), DP7-C/no-sense control siRNA complex (25 μg/5 μg) or DP7-C/VEGF siRNA complex (25 μg/5 μg) respectively. • (4) On day 20, when the mice in the control group are already very weak, all the mice are killed by cervical dislocation; the tumor tissues in the abdominal cavity as well as the heart, liver, spleen, lung and kidney tissues are immediately collected, weighed and analyzed. The ascites of each group of mice is also collected and measured, and CD31 immunohistochemical staining is performed on tumor tissues of each experimental group. The collected heart, liver, spleen, lung and kidney tissues are analyzed by HE staining.
# [4] = tested on: B16 metastatic melanoma in the lung; test: B16 mouse model of metastatic melanoma in the lung; format: in vivo
# Procedure: In order to further characterize the application potential of DP7-C micelles in tumor therapy, we established a B16 mouse model of metastatic melanoma in the lung and used DP7-C to transmit anti-VEGF siRNA therapeutic genes for therapeutic research. • (1) On day 0, female C57 mice aged 6-8 weeks are […] inoculated with 0.1 mL of cell suspension (containing about 2.5×10^5 B16 cells). • (2) On day 3, mice are randomly divided into 4 groups, 8 mice for each group, and are labeled. • (3) Mice are injected with 7 doses of normal saline (blank control group), blank DP7-C micelle (60 μg), DP7-C/no-sense control siRNA complex (60 μg/12 μg) or DP7-C/VEGF siRNA complex (60 μg/12 μg) respectively through tail veins. • (4) On day 20, when the mice in the control group are already very weak, all the mice are killed by cervical dislocation; the tumor tissues in the lung as well as the heart, liver, spleen, lung and kidney tissues are immediately collected, weighed and analyzed. The collected heart, liver, spleen, lung and kidney tissues are analyzed by HE staining.
# [5] = tail vein injection, 7 doses, day 20
smiles,measurement,setting,value
"CC[C@H](C)[C@H](NC(=O)[C@H](CCCNC(=N)N)NC(=O)[C@H](Cc1c[nH]c2ccccc12)NC(=O)[C@H](CCC(N)=O)NC(=O)[C@@H](NC(=O)CCC(=O)O[C@H]1CC[C@@]2(C)C(=CC[C@H]3[C@@H]4CC[C@H]([C@H](C)CCCC(C)C)[C@@]4(C)CC[C@@H]32)C1)C(C)C)C(=O)N[C@@H](CCCNC(=N)N)C(=O)N[C@H](C(=O)N[C@@H](C)C(=O)N[C@H](C(=O)N[C@H](C(=O)N[C@@H](CCCNC(=N)N)C(=O)N[C@@H](CCCCN)C(N)=O)[C@@H](C)CC)C(C)C)C(C)C [DP7-C, Chol-suc-VQWRIRVAVIRK-NH2] ({Succinyl(4-O-cholesteryl)}-VQWRIRVAVIRK-NH2)",average colony forming unit (CFU) of Staphylococcus aureus,"[1]; DP7-C 1 mg/kg, VAN 20 mg/kg, vs NS group, p<0.01",significantly lower than those in NS group
same,antibacterial effect compared with positive drug group,[1]; no statistical difference,basically the same as that of the positive drug group
same,growth rate of PAO1-GFP in zebrafish abdominal cavity,[2],much lower than that of NS group
same,"gene expression of IL-1β, MCP-1 and TNF-α",mouse PBMC; 200 μg/mL DP7-C together with LPS,significantly reduced
same,"expression of IL-1, IL-6, MCP-1, M-CSF, TNF-α and other cytokines related to immune activation","mouse PBMC; 200 μg/ml, 4 h",greatly increased
same,HE staining of major organ tissues,"[3]; heart, liver, spleen, lung, kidney",no significant pathological changes
same,average tumor weight (unit mm^3),"[3]; intratumoral injection, 10 doses",357.64±30.56 mm^3
same,HE staining of major organ tissues,"[4]; heart, liver, spleen, kidney",no significant pathological changes
same,average number of tumor nodes,[4]; [5],132±22
same,average weight of lung tissue,[4]; [5],0.41 ± 0.1 g
